Measurements: patent publication US9700058B2, “Dispersion and detachment of cell aggregates” (priority 2011, dated 2017)

Legend:
Type in all cases: cell-based
[1] = tested on: Pseudomonas aeruginosa (ATCC 27853); experiment: Detachment of pre-formed biofilm from a well (Examples 1-7); conditions: 24-hour peptide incubation, different concentrations, crystal violet OD 595 nm
Description: A biofilm was created by incubating Pseudomonas aeruginosa (ATCC 27853) overnight in wells at 37° C., allowing the microorganism to attach to the well surface. Eqt2Z-cyc peptide [Custom Peptide Synthesis; Peptron, Korea] at different concentrations was subsequently added to the wells and allowed to incubate overnight. The P.a. control was Pseudomonas aeruginosa alone.
A biofilm was created by culturing Pseudomonas aeruginosa (ATCC 27853) for 2 hours in a well at 37° C. Eqt2Z-cyc peptide at different concentrations was subsequently added to the well and allowed to incubate overnight. The Abac10-cyc peptide served as a negative control. The P.a. control was Pseudomonas aeruginosa alone.
A biofilm was created by culturing Pseudomonas aeruginosa (ATCC 27853) for 2 hours in a well at 37° C. Eqt2Z-cyc peptide at different concentrations was subsequently added to the well and allowed to incubate for 24 hours. The Abac10-cyc peptide served as a negative control. The P.a. control was Pseudomonas aeruginosa alone. […] Staining was performed with crystal violet at OD 595 nm.
A biofilm was created by culturing Pseudomonas aeruginosa (ATCC 27853) for 2 hours in a well at 37° C. grZ14s-nvCyc peptide [Custom Peptide Synthesis; Peptron, Korea] at different concentrations was subsequently added to the well and allowed to incubate for 24 hours. The Abac10-cyc peptide served as a negative control. The P.a. control was Pseudomonas aeruginosa alone. […] Staining was performed with crystal violet at OD 595 nm.
A biofilm was created by culturing Pseudomonas aeruginosa (ATCC 27853) for 24 hours in a well at 37° C. Eqt2Z-cyc peptide at different concentrations was subsequently added to the well and allowed to incubate for 24 hours. The Abac10-cyc peptide served as a negative control. The P.a. control was Pseudomonas aeruginosa alone. […] Staining was performed with crystal violet at OD 595 nm.
A biofilm was created by culturing Pseudomonas aeruginosa (ATCC 27853) for 24 hours in a well at 37° C. grZ14s-nvCyc peptide at different concentrations was subsequently added to the well and allowed to incubate for 24 hours. The Abac10-cyc peptide served as a negative control. The P.a. control was Pseudomonas aeruginosa alone. […] Staining was performed with crystal violet at OD 595 nm.
A biofilm was created by culturing Pseudomonas aeruginosa (ATCC 27853) for 24 hours in a well at 37° C. PhyscoZ-Cyc peptide [Custom Peptide Synthesis; Peptron, Korea] at different concentrations was subsequently added to the well and allowed to incubate for 24 hours. The P.a. control was Pseudomonas aeruginosa alone. […] Staining was performed with crystal violet at OD 595 nm.

Staphylococcus aureus = experiment: Enhancement of Vancomycin activity on 24-h biofilm, live bacteria by plating; conditions: peptide 100 ng/ml with Vancomycin vs Vancomycin alone
Description: The ability of grZ14s-nvCyc to enhance the activity of Vancomycin was performed by first incubating the wells in a 96-well plate with Staphylococcus aureus for 24 hours at 37° C. and 50 rpm shaking. The plate was washed 2 times with phosphate buffer solution. The wells were then filled with either the antibiotic alone or the antibiotic with grZ14s-nvCyc (100 ng/ml). The wells were then incubated for 24 hours at 37° C. and 50 rpm shaking. 0.3% triton X-100 and 0.45% EDTA were then added to the wells, bringing the wells to a final concentration of 0.075% triton X-100 and 0.1125% EDTA. The plates were then sonicated in a bath-sonicator for 12 minutes. The wells were then serially diluted in PBS. The solutions were then seeded on a blood plate agar and incubated at 37° C. for 24 hours.

Pseudomonas aeruginosa [2] = experiment: Enhancement of Kanamycin activity, BacTiter-Glo viability; conditions: peptide 100 ng/ml with Kanamycin vs Kanamycin alone, 24 hours
Description: (§1) The ability of grZ14s-nvCyc to enhance the activity of Kanamycin was performed by first incubating the wells in a 96-well plate with Pseudomonas aeruginosa for 24 hours at 37° C. and 50 rpm shaking. The plate was washed 2 times with phosphate buffer solution. The wells were then filled with either Kanamycin alone or Kanamycin with grZ14s-nvCyc (100 ng/ml). The wells were then incubated for 24 hours at 37° C. and 50 rpm shaking. The plates were again washed 2 times with PBS. BacTiter-Glo Microbial Cell Viability Assay (Promega, USA) was used following the manufacturer protocol and luminescence read.

Candida albicans = experiment: Enhancement of antifungal activity, BacTiter-Glo viability; conditions: 24 hours
Description: as §1, with “of Amphotericin” for “of Kanamycin”, “with Candida albicans” for “with Pseudomonas aeruginosa”, “either the antifungal” for “either Kanamycin”, “or the antifungal” for “or Kanamycin”
as §1, with “of Fluconazole” for “of Kanamycin”, “with Candida albicans” for “with Pseudomonas aeruginosa”, “either the antifungal” for “either Kanamycin”, “or the antifungal” for “or Kanamycin”

Pseudomonas aeruginosa [3] = experiment: Enhancement of antibiotic activity on 24-h biofilm, live bacteria by plating
Description: The ability of grZ14s-nvCyc to enhance the activity of Imipenem or Ampicillin was performed by first incubating the wells in a 96-well plate with Pseudomonas aeruginosa for 24 hours at 37° C. and 50 rpm shaking. The plate was washed 2 times with phosphate buffer solution. The wells were then filled with either the antibiotic alone or the antibiotic with grZ14s-nvCyc (100 ng/ml). The wells were then incubated for 48 hours (24 hours for Ampicillin) at 37° C. and 50 rpm shaking. 0.3% triton X-100 and 0.45% EDTA were then added to the wells, bringing the wells to a final concentration of 0.075% triton X-100 and 0.1125% EDTA. The plates were then sonicated in a bath-sonicator for 12 minutes. The wells were then serially diluted in PBS. The solutions were then seeded on a blood plate agar and incubated at 37° C. for 24 hours.

CSVHSFDYDWYNVC [grZ14s-nvCyc]
microorganism detachment ([1]; 2-hour biofilm): far greater microorganism detachment than in the P.a. control or negative control | microorganism detachment ([1]; 24-hour biofilm): far greater microorganism detachment than in the P.a. control or negative control | number of live bacteria (Staphylococcus aureus): much lower | number of live bacteria (Pseudomonas aeruginosa [2]): much lower | number of live fungus (Candida albicans; peptide 100 ng/ml with Amphotericin vs Amphotericin alone): much lower | number of live fungus (Candida albicans; peptide 100 ng/ml with Fluconazole vs Fluconazole alone): much lower | number of live bacteria (Pseudomonas aeruginosa [3]; peptide 100 ng/ml with Ampicillin vs Ampicillin alone, 24 hours): much lower | number of live bacteria (Pseudomonas aeruginosa [3]; peptide 100 ng/ml with Imipenem vs Imipenem alone, 48 hours): much lower
